From patent EP1501797B1, “3-(SUBSTITUTED AMINO)-1H-INDOLE-2-CARBOXYLIC ACID ESTER AND 3-(SUBSTITUTED AMINO)-BENZO[B]THIOPHENE-2-CARBOXYLIC ACID ESTER DERIVATIVES AS INTERLEUKIN-4 GENE EXPRESSION INHIBITORS” (Aventis Pharmaceuticals Inc., priority 2002, dated 2003)

What was measured:
human IL-13 promoter = assay: IL-13 Luc assay in Jurkat cells (2.1IL-13 Luc); type: cell-based; details: Jurkat cell line; concentration not given; 480 min
IL-4 = assay: In vivo ovalbumin (OVA) mouse model, BALF IL-4; set-up: species or system mice; details: for IL-4 pg/ml (± SEM): 30 minutes before OVA challenge, BALF 24 hours, vehicle 1220.4 ± 207.7
Description: This model is designed to determine the ability of a test article to modulate an antigen-induced pulmonary inflammatory cell accumulation in sensitized Balb/c mice from Charles River Laboratories. The mice are given a two week time period from arrival date prior to sensitizations.
On days 0, 7, 14, each animal is injected intraperitoneal (i.p.) with a 0.2 ml Ovalbumin Hydragel solution. Each animal receives 10 µg of Ovalbumin in 0.2 mL of Hydragel, aluminum hydroxide adsorptive gel containing 2% aluminum oxide. […] On day 22, BALF samples are collected from one group of animals and used for cytokine analysis. On day 24, BALF is obtained from a second group of animals and used for differential cell counts.
Test System: Female Babl/cJ mice (Jackson Laboratories), approximately 6-9 weeks old, each weighing approximately 20 to 25 grams, are divided into ten animals per group.
Sensitization Regimen: Mice are sensitized by an intraperitoneal injection of 10 µg ovalbumin (OVA) mixed in 4 mg aluminum hydroxide Al(OH)3 gel suspension in 0.2 ml sterile saline on Days 0, 7 and 14. This suspension is prepared one hour before intraperitoneal injection into each mouse. The animals are ready for OVA challenge on Day 21.
Antigen Challenge: Animals are exposed to aerosolized OVA on day 21 (5% w/v in sterile saline) for 20 minutes. The aerosol is generated by a PARI-Master nebulizer, the outlet of which is connected to a small Plexiglas® chamber containing the animals. Bronchoalveolar lavage is performed on Day 22.
Method of Study Performance: On day 24, 72 hours following aerosol OVA exposure, a separate group of animals are anesthetized with urethane (0.15 - 0.2 gm/kg) and the trachea is exposed and cannulated. Lungs are lavaged with 2 x 0.5 ml Hank's balanced salt solution without Ca^2+ and Mg^2+ (HBSS; Gibco, Grand Island, NY) containing 0.1% EDTA. Lavage fluid is recovered after 30 sec by gentle aspiration and pooled for each animal. Samples are centrifuged at 2000 rpm for 15 minutes at 5°C. After centrifugation, individual supernatants are stored frozen at -80°C. The resulting pellet is resuspended in 0.5 ml of HBSS containing 0.1% EDTA. Total cells and eosinophils are determined using a Technicon Hl and cytoslides, respectively.
Administration of the Test/Control Article: The test article and vehicle dosing preparations are administered once to each anesthetized mouse intranasally using a 200 µl pipette at 30-60 minutes prior to OVA challenge. Each animal receives 50 µl (25 µl/nostril) at each time point. Method of Euthanasia: Urethane overdose at in-life completion.
Compounds administered 30 minutes before aerosol ovalbumin challenge in ova sensitized mice. BALF harvested 24 hours after aerosol challenge. N = 6/group.
Mice (12 animals per group) are sensitized with 0.2 ml of an AlOH3 hydrogel suspension (2% AlOH3) containing 50 µg/ml ovalbumin on days 0, 7 and 14. […] The glucocorticosteroid budesonide (10 mg/kg) is included as a control. All compounds are given in 0.5% methylcellulose/0.2% Tween 80, intranasally (50µl). After the OVA challenge for 24 hours, the mice underwent bronchoalveolar lavage and IL-4 and IL-13 levels in the BALF are determined by ELISA. Another group of mice underwent bronchoalveolar lavage (72 hours after treatment) to determine the number of the eosinophils (*p<0.05, **p<0.01).
Compounds are given (30 mg/kg), intranasally, once, 30 min before OVA challenge unless noted otherwise. BAL fluids are collected 24 hours after OVA challenge and the cytokine levels are measured by standard ELISAs.

Human primary Th1 cells = assay: Human primary Th1 (NYTh1) cells, proliferation (MTS assay); type: cell-based; details: data from 8 different experiments combined
Description: Briefly, CD4^+CD45RA^+ T cells, isolated from donor peripheral blood mononuclear cells of healthy donors, are educated in the presence of anti-CD3/CD28 antibodies and various growth factors to obtain either a Thl-like or Th2-like phenotypes as determined by the known cytokine profiles of these two cell types.
Generation of Th1/Th2 cells: Twenty four well plates are coated with 300 µL anti-CD3 Ab (10 µg/ml, in PBS 1-2 h at 37°C or overnight at 4°C), and washed two times with PBS. CD4^+/CD45RA^+ cells at a density of 10^6/ml in RPMI, is prepared and added to RPMI medium containing 10% Hyclone serum/ glutamine and 1-2 µg/ml anti-CD28 Ab. The cells are split in two aliquots. […] The degree of polarization is determined by intracellular staining of cells with anti-IFN-γ and anti-IL-4 antibodies from Pharmingen, and using flow cytometry from Becton Dickinson (BD), according to manufacturers description. […] For compound testing, large quantities of Th1 and Th2 cells derived from a given donor (NYTh1 and NYTh2) were expanded and frozen as aliquots in liquid nitrogen. […]
Re-stimulation by allogeneic cells: Human PBMCs, to be used as alloantigens, are isolated from freshly drawn blood by Ficoll separation. […] Cells are counted and diluted to a final concentration of 2 x 10^6/ml in medium containing 10 µg/ml PHA and 200 units/ml IL-2. […]

human IFN-γ promoter = assay: IFN-γ Luc assay in Jurkat cells; type: cell-based; details: Jurkat cell line; concentration not given; 480 min

For O=C(O)c1[nH]c2ccccc2c1Nc1ccncc1 [Example 28, 3-(4-Pyridinylamino)-1H-indole-2-carboxylic acid], the “2.1-IL-13 - Luc (% of control)” value (human IL-13 promoter) was 50 ± 12 % of control, the “IL-4 pg/ml (± SEM)” value (IL-4; 3 mg/kg intranasal) was 835.1 ± 40.4 pg/mL and the “IL-4 pg/ml (± SEM)” value (IL-4; 10 mg/kg intranasal) was 414.3 ± 115.5 pg/mL. For the same molecule, the “IL-4 pg/ml (± SEM)” value (IL-4; 30 mg/kg intranasal) was 123.9 ± 48.7 pg/mL, the ED50 (IL-4; Mus musculus, mice, intranasally, FIG. 1, read-out: ED50, allergen-induced IL-4 levels in the BALF) was roughly 10 mg/kg and the IC50 (Human primary Th1 cells) was greater than 10 µM. The “2.7-IFN-γ -Luc (% of control)” value (human IFN-γ promoter) was 100 ± 15 % of control.
